{"source": "paper PMC9467586", "about": "“Development of novel 9-O-substituted-13-octylberberine derivatives as potential anti-hepatocellular carcinoma agents” (Journal of Enzyme Inhibition and Medicinal Chemistry, 2022)", "key": {"Hep3B cells": {"system": "Hep3B cells", "experiment": "In vitro antiproliferative MTT assay, Hep3B cells", "assay_type": "cell-based, human", "details": "Homo sapiens, 72 h, mean ± SD (n = 3)", "procedure": "(§1) HepG2, Sk-Hep-1, Huh-7, Hep3B and L-02 cells were purchased from Nanjing Key Gen Biotech Co. Ltd. (Nanjing, China). The cytotoxicity of test compounds was determined using an MTT assay. Briefly, the cell lines were incubated at 37 °C in a humidified 5% CO2 incubator for 24 h in 96-microwell plates. After medium removal, 100 μL of culture medium with 0.1% DMSO containing test compounds at different concentrations was added to each well and incubated at 37 °C for another 72 h. The MTT (5 mg/mL in PBS) was added and incubated for another 4 h, the optical density was detected with a microplate reader at 490 nm. The IC50 values were calculated according to the dose-dependent curves. All the experiments were repeated in at least three independent experiments."}, "[1]": {"system": "p-cdc25c, cdc2 and cyclin B1", "experiment": "Western blot of G2/M-related proteins", "assay_type": "cell-based, human", "details": "HepG2, 72 h, concentration-dependent", "procedure": "(§2) HepG2 cells were incubated with different doses of 6k for 72 h. Cells were collected, centrifuged, and washed two times with ice-cold PBS. The pellet was then re-suspended in lysis buffer. After the cells were lysed on ice for 20 min, lysates were centrifuged at 13000 g at 4 °C for 15 min. The protein concentration in the supernatant was determined using the BCA protein assay reagents. Equal amounts of protein (20 μg) were resolved using sodium dodecyl sulfate-polyacrylamide gel electrophoresis (SDS-PAGE) (10–12% acrylamide gels) and transferred to PVDF membrane. Membranes were blocked for 1 h at room temperature. Membranes were then incubated with primary antibodies against p-cdc25c, cdc2, cyclin B1, Bax, Bcl-2, cytochrome C, caspase-3, VDAC1 and β-actin, the membrane being gently rotated overnight at 4 °C. The bound antibodies were detected using horseradish peroxidase (HRP)-conjugated second antibodies and visualised by the enhanced chemiluminescent reagent."}, "Sk-Hep-1 cells": {"system": "Sk-Hep-1 cells", "experiment": "In vitro antiproliferative MTT assay, Sk-Hep-1 cells", "assay_type": "cell-based, human", "details": "Homo sapiens, SK-HEP1, 72 h, mean ± SD (n = 3)", "procedure": "as §1"}, "[2]": {"experiment": "LWP coefficient (log D) measurement, shake flask", "assay_type": "physicochemical", "details": "pH 7.4", "procedure": "Berberine, 3c and 6k of 1 mg were dissolved in three centrifugal tubes (5 ml) containing phosphate buffer (pH 7.4)-saturated 1-octanol solution (2 mL), followed by the addition of 1-octanol saturated PBS (2 mL). Each tube was vigorously mixed for 1 min and then shaken for 6 h at a speed of 1000 rpm at 37 °C. The mixtures were then centrifuged. 1 mL of 1-octanol phase and 1 mL of buffer were separately collected. Each phase was diluted to a suitable concentration and analysed by HPLC (Shimadzu DGU-20A3R) on a Shimadzu-GL WondaSil C18-WR column (λ = 254 nm) with an eluent of methanol/water (65/35, v/v, 1.0 ml/min). The log D value for each compound was calculated from the ratio of the peak areas using the following equation: Log D = log (Areaoct × x/Areabuf × y). x, y is the dilution factor."}, "duplex DNA (F10T)": {"system": "duplex DNA (F10T)", "experiment": "FRET-melting assay, F10T (duplex DNA model)", "assay_type": "binding", "details": "2 μM compounds"}, "Huh-7 cells": {"system": "Huh-7 cells", "experiment": "In vitro antiproliferative MTT assay, Huh-7 cells", "assay_type": "cell-based, human", "details": "Homo sapiens, 72 h, mean ± SD (n = 3)", "procedure": "as §1"}, "[3]": {"experiment": "Aqueous solubility measurement by HPLC", "assay_type": "physicochemical", "details": "25 °C, pH 7.4, aqueous buffer, thermodynamic from solid", "procedure": "Berberine, 3c and 6k (5 mg) were dissolved in 1 ml PBS (50 mM, pH 7.4) at 25 °C. The suspension was sonicated for 30 min and then centrifuged at 15000 g for 5 min. The supernatant was filtered through a PTFE filter (0.2 μm) slowly. Then 10 μL filtered solution was injected into the HPLC system (Shimadzu DGU-20A3R) on a Shimadzu-GL WondaSil C18-WR column and quantified using the standard curves made by the corresponding known concentrations of berberine, 3c and 6k. The eluent was methanol/water (65/35, v/v) at a flow rate of 1.0 ml/min with the detection wavelength at 254 nm."}, "HepG2 cells": {"system": "HepG2 cells", "experiment": "Cell cycle analysis by PI staining and flow cytometry", "assay_type": "cell-based, human", "details": "for G2 phase cell percentage: 72 h (control 18.00%); for S phase cell percentage: 72 h (control 22.95%); for G1 phase cell percentage: 72 h (control 59.05%)", "procedure": "HepG2 cells were seeded into 6-well plates and incubated at 37 °C in a humidified 5% CO2 incubator for 24 h, and then treated with or without 6k at indicated concentrations for another 72 h. The collected cells were fixed by adding 70% ethanol at 4 °C for 12 h. Subsequently, the cells were resuspended in PBS containing 100 μL RNase A and 400 μL of PI for 30 min. The DNA content of the cells was measured using a FACS Calibur flow cytometer (BectoneDickinson, San Jose, CA, USA)."}, "[4]": {"system": "human hepatoma cells including HepG2, Sk-Hep-1 and Huh-7 cells", "experiment": "Antiproliferative MTT assay, summary over human hepatoma cells", "assay_type": "cell-based", "details": "read-out: IC50 values against human hepatoma cells (span over cell lines)", "procedure": "as §1"}, "c-MYC G4 DNA (FPu18T)": {"system": "c-MYC G4 DNA (FPu18T)", "experiment": "FRET-melting assay, FPu18T (c-MYC G4 DNA model)", "details": "2 μM compounds"}, "[5]": {"system": "Bax, Bcl-2, cytochrome C and caspase-3", "experiment": "Western blot of apoptosis-related proteins", "assay_type": "cell-based, human", "details": "HepG2, 72 h, concentration-dependent", "procedure": "as §2"}}, "data": [{"smiles": "CCCCCCCCc1c2[n+](cc3c(OCCCCCCCCN4CCN(C)CC4)c(OC)ccc13)CCc1cc3c(cc1-2)OCO3.[Br-]", "note": "[Compound 6k, 10-Methoxy-9-((8–(4-methylpiperazin-1-yl)octyl)oxy)-13-octyl-5,6-dihydro-[1,3]dioxolo[4,5-g]isoquinolino[3,2-a]isoquinolin-7-ium bromide]", "values": [{"measurement": "IC50", "setting": "Hep3B cells", "result": "1600 ± 110", "unit": "nM"}, {"measurement": "cdc2", "setting": "[1]", "result": "inhibited cdc2 kinase activation"}, {"measurement": "cdc25c phosphorylation (p-cdc25c)", "setting": "[1]", "result": "significantly promoted cdc25c phosphorylation"}, {"measurement": "cyclin B1", "setting": "[1]", "result": "reduced cyclin B1 binding"}, {"measurement": "IC50", "setting": "Sk-Hep-1 cells", "result": "1690 ± 70", "unit": "nM"}, {"measurement": "logD", "setting": "[2]", "result": 3.87}, {"measurement": "ΔTm(B) = Tm(F10T + compound) - Tm(F10T)", "setting": "duplex DNA (F10T)", "result": 0.8, "unit": "°C"}, {"measurement": "IC50", "setting": "Huh-7 cells", "result": "620 ± 40", "unit": "nM"}, {"measurement": "solubility at 30 min", "setting": "[3]", "result": 1080, "unit": "µg/mL"}, {"measurement": "melting point", "result": "151 to 153", "unit": "°C"}, {"measurement": "Effect on cell cycle progression", "setting": "HepG2 cells; HepG2, 0.25-1.0 μM, 72 h", "result": "cell cycle arrest at G2/M phase"}, {"measurement": "G2 phase cell percentage", "setting": "HepG2 cells; HepG2, 6k 0.25 μM", "result": 23.56, "unit": "%"}, {"measurement": "S phase cell percentage", "setting": "HepG2 cells; HepG2, 6k 0.25 μM", "result": 16.19, "unit": "%"}, {"measurement": "G1 phase cell percentage", "setting": "HepG2 cells; HepG2, 6k 0.25 μM", "result": 60.24, "unit": "%"}, {"measurement": "G2 phase cell percentage", "setting": "HepG2 cells; HepG2, 6k 0.50 μM", "result": 29.49, "unit": "%"}, {"measurement": "S phase cell percentage", "setting": "HepG2 cells; HepG2, 6k 0.50 μM", "result": 22.68, "unit": "%"}, {"measurement": "G1 phase cell percentage", "setting": "HepG2 cells; HepG2, 6k 0.50 μM", "result": 47.82, "unit": "%"}, {"measurement": "G2 phase cell percentage", "setting": "HepG2 cells; HepG2, 6k 1.0 μM", "result": 32.16, "unit": "%"}, {"measurement": "S phase cell percentage", "setting": "HepG2 cells; HepG2, 6k 1.0 μM", "result": 26.95, "unit": "%"}, {"measurement": "G1 phase cell percentage", "setting": "HepG2 cells; HepG2, 6k 1.0 μM", "result": 40.88, "unit": "%"}, {"measurement": "total cell percentages of G1 and S phases", "setting": "HepG2 cells; HepG2, 6k 1.0 μM, 72 h (control 82.00%)", "result": 67.83, "unit": "%"}, {"measurement": "IC50", "setting": "[4]", "result": "620 to 1690", "unit": "nM"}, {"measurement": "ΔTm(A) = Tm(FPu18T + compound) - Tm(FPu18T)", "setting": "c-MYC G4 DNA (FPu18T)", "result": 13.8, "unit": "°C"}, {"measurement": "Bax expression", "setting": "[5]", "result": "upregulated Bax expression"}, {"measurement": "Bcl-2 expression", "setting": "[5]", "result": "downregulated Bcl-2 expression"}, {"measurement": "caspase-3", "setting": "[5]", "result": "activated caspase-3"}, {"measurement": "cytochrome C release", "setting": "[5]", "result": "promoted cytochrome C release"}]}]}
